The target of one data set is CB1 receptor. As to conditions: cited from earlier work.
The target of data set [1] is CB2. Also on record: method as in PMID 21885167. To be noted: Figure 1; cited from earlier work.
The target of data set [2] is human cannabinoid CB1 receptor (Homo sapiens, UniProt P21554). Kind of data set: CB1 receptor radioligand ([3H]CP-55,940) displacement binding assay. As to conditions: for inhibition at 1 µM: read-out: displacement of [3H]CP-55,940 in the preliminary screen (printed in the CB1 Ki column). As to the method:
In all cases, Ki values were calculated by applying the Cheng-Prusoff equation [34] to the IC50 values (obtained by GraphPad, GraphPad Software, Inc., La Jolla, CA, USA) for the displacement of the bound radioligand by increasing concentrations of the test compounds (after three separate experiments for each compound).
A general note: Loss of bound radioactivity is the signal in a displacement assay; it reports binding, not function.

Data set [3] deals with CB2. Details: method as in PMID 21420860. To be noted: Figure 1; read-out: IC50 cAMP (CB2); cited from earlier work.
Data set [4] deals with CB1. Also on record: method as in PMID 21420860. As to conditions: Figure 1; read-out: IC50 cAMP (CB1); cited from earlier work.
The subject of data set [5] is CB2. Also on record: method as in PMID 21669533. As to conditions: Figure 1; cited from earlier work.
In data set [6] the test system is CB1. Details: method as in PMID 21669533. As to conditions: Figure 1; cited from earlier work.
The mark [7] stands for this setting: CoMFA training and test set input, read-out: Experimental activity (pIC50) (converted).
Where [8] appears, read: CB1 (Ki, nM), displacement of 0.5 nM [3H]CP-55,940, means ± SEM, n = 3, Cheng-Prusoff from IC50.
[9] abbreviates: Experimental activity (pIC50, M), CoMFA training and test set input.

Read-outs that look alike come from different tables or passages of the source. A value given as a limit tells only on which side of the number the result lay.

The term Ki denotes the equilibrium dissociation constant of an inhibitor or competing ligand from its target. What is called melting point is the temperature of the solid-liquid transition. One may read the EC50 as the concentration needed to bring the measured effect to its halfway point.

Sequence of human cannabinoid CB1 receptor (P21554 whole entry): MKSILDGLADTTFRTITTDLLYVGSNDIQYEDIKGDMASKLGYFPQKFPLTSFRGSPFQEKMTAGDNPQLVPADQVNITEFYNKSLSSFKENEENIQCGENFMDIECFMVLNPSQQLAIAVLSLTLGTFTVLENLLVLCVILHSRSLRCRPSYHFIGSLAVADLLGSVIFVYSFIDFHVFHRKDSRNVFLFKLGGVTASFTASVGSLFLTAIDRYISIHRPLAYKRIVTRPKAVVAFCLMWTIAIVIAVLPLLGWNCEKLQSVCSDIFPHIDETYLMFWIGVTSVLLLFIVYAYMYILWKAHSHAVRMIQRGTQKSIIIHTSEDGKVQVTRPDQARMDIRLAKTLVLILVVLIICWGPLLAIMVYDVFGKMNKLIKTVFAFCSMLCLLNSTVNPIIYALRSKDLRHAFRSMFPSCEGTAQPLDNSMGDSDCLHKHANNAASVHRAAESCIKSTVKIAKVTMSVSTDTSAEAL

`CCCCCn1c(C)c(C(=O)c2ccccc2I)c2ccccc21` [AM679]: on CB1 receptor (non-selective CB1 and CB2 agonist), the inhibitory constant (Ki) was 13.5 nM.
For the compound `CCCCCn1c(C)c(C(=O)c2cccc3ccccc23)c2cccnc21` [Abbott], on CB2 [1], the “pKi (CB2)” value is reported as 7.3. Further, the “pKi (CB1)” value on CB1 receptor (Figure 1) is reported as 7.9.
Regarding `Fc1ccc2nc(-c3ccncc3)n(Cc3cccc4ccccc34)c2c1` [Compound 43, 6-Fluoro-1-(naphthalen-1-ylmethyl)-2-(pyridin-4-yl)-1H-benzo[d]imidazole], the melting point lay in the range of 167.4 to 168.1 °C. Further, the IC50 in data set [2] (setting [7]) is 1120 nM. For the same compound, in data set [2] (read-out: CB1 (Ki)), the Ki stood at 614 ± 54.7 nM.
Compound `Cc1cc2nc(-c3ccncc3)n(Cc3cccc4ccccc34)c2cc1C` [Compound 44, 5,6-Dimethyl-1-(naphthalen-1-ylmethyl)-2-(pyridin-4-yl)-1H-benzo[d]imidazole] returned a melting point of 156.8 to 157.6 °C. This compound also gave a Ki in data set [2] (setting [8]) of 4.84 ± 2 nM. This compound also showed an IC50 in data set [2] (setting [9]) of 8.87 nM. This compound also had an IC50 in data set [2] (IC50 (CB1 displacement), displacement of [3H]CP-55,940) below 10 nM.
`c1ccc(-c2nc3ccccc3n2Cc2ccc3ccccc3c2)nc1` [Compound 45, 1-(Naphthalen-2-ylmethyl)-2-(pyridin-2-yl)-1H-benzo[d]imidazole] showed a melting point of 150.7 to 151.8 °C. This compound showed a Ki in data set [2] (setting [8]) of 31.8 ± 12 nM. Moreover, the IC50 in data set [2] (setting [9]) is 58.3 nM.
In turn, `Fc1ccc2c(c1)nc(-c1ccccn1)n2Cc1ccc2ccccc2c1` [Compound 46, 5-Fluoro-1-(naphthalen-2-ylmethyl)-2-(pyridin-2-yl)-1H-benzo[d]imidazole] registered a melting point of 165.7 to 166.4 °C. The inhibition at 1 µM in data set [2] is below 50%.
For `Fc1ccc2nc(-c3ccccn3)n(Cc3ccc4ccccc4c3)c2c1` [Compound 47, 6-Fluoro-1-(naphthalen-2-ylmethyl)-2-(pyridin-2-yl)-1H-benzo[d]imidazole], in that order: 170.5 to 171.3 °C and below 50%.
Turning to `c1cncc(-c2nc3ccccc3n2Cc2ccc3ccccc3c2)c1` [Compound 49, 1-(Naphthalen-2-ylmethyl)-2-(pyridin-3-yl)-1H-benzo[d]imidazole], the melting point lay in the range of 146.3 to 147 °C. In addition, the IC50 in data set [2] (setting [7]) is 3380 nM. The Ki in data set [2] (read-out: CB1 (Ki)) was determined as 1840 ± 79.8 nM.
On the same counts, the results for `Fc1ccc2c(c1)nc(-c1cccnc1)n2Cc1ccc2ccccc2c1` [Compound 50, 5-Fluoro-1-(naphthalen-2-ylmethyl)-2-(pyridin-3-yl)-1H-benzo[d]imidazole] are 175.7 to 176.8 °C, 600 nM and 327 ± 60 nM.
The compound `Cc1cc2nc(-c3cccnc3)n(Cc3ccc4ccccc4c3)c2cc1C` [Compound 52, 5,6-Dimethyl-1-(naphthalen-2-ylmethyl)-2-(pyridin-3-yl)-1H-benzo[d]imidazole] returned a melting point of 138.5 to 139.5 °C. Also, the affinity in data set [2] (setting [8]) corresponds to a Ki of 140 ± 10.1 nM. Besides, the IC50 in data set [2] (setting [9]) was 256 nM.
For `Fc1ccc2c(c1)nc(-c1ccncc1)n2Cc1ccc2ccccc2c1` [Compound 54, 5-Fluoro-1-(naphthalen-2-ylmethyl)-2-(pyridin-4-yl)-1H-benzo[d]imidazole], in that order: 177.8 to 178.5 °C, 44.4 ± 5.5 nM and 81.5 nM.
`Fc1ccc2nc(-c3ccncc3)n(Cc3ccc4ccccc4c3)c2c1` [Compound 55, 6-Fluoro-1-(naphthalen-2-ylmethyl)-2-(pyridin-4-yl)-1H-benzo[d]imidazole] yielded a melting point of 163.5 to 164.1 °C. Moreover, the IC50 in data set [2] (setting [7]) is 1040 nM. Further, the Ki in data set [2] (read-out: CB1 (Ki)) was 567 ± 7 nM.
Consider `Cc1cc2nc(-c3ccncc3)n(Cc3ccc4ccccc4c3)c2cc1C` [Compound 56, 5,6-Dimethyl-1-(naphthalen-2-ylmethyl)-2-(pyridin-4-yl)-1H-benzo[d]imidazole], for which the melting point lay within 133.7 to 134.5 °C. Further, the IC50 in data set [2] (setting [7]) was 442 nM. Moreover, the Ki in data set [2] (read-out: CB1 (Ki)) was found to be 241 ± 10 nM.
As for `O=C(c1cccc(Cl)c1Cl)c1nc(CN2CCC(F)(F)CC2)c2ccccn12` [Merck], the values for the IC50 in the data set with CB2 [3] and in the data set with CB1 [4] were 0.3 nM and 90 nM, respectively.
Consider `CCS(=O)(=O)c1ccc2c(c1)nc(C(C)(C)C)n2C[C@@H]1CCCO1` [Pfizer], for which the concentration for a half-maximal effect (EC50) in the data set with CB2 [5] was 11.7 nM; with CB1 [6] it was above 10000 nM.

The values above are taken from publication PMC6270614 (Molecules, 2013).
